Results as given in patent publication US20030144360A1, “Composition and method for modulating BAR/FXR receptor activity” (Allergan Sales, Inc., priority 2001, published 2003).
Values joined by “and” are separate entries in the source; they are usually repeats but may differ in a detail not shown here. Equal entries are not always repeated.

Biological target: T1, RFXRop / HRXRop (UniProt P19793+Q62735)
T1 sequence (Q62735 1-469): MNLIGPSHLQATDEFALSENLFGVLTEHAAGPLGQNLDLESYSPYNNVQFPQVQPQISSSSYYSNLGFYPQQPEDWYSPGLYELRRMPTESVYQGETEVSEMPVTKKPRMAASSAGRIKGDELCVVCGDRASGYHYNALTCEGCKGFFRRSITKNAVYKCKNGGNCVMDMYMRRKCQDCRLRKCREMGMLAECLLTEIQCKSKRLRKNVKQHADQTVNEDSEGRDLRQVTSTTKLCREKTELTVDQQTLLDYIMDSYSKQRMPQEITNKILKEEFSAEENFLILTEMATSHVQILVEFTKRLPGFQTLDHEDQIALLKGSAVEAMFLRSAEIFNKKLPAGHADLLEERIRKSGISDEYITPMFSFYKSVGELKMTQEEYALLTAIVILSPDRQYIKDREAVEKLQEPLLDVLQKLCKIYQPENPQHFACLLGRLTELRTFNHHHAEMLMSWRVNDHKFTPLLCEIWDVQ
T1 sequence (P19793 1-462): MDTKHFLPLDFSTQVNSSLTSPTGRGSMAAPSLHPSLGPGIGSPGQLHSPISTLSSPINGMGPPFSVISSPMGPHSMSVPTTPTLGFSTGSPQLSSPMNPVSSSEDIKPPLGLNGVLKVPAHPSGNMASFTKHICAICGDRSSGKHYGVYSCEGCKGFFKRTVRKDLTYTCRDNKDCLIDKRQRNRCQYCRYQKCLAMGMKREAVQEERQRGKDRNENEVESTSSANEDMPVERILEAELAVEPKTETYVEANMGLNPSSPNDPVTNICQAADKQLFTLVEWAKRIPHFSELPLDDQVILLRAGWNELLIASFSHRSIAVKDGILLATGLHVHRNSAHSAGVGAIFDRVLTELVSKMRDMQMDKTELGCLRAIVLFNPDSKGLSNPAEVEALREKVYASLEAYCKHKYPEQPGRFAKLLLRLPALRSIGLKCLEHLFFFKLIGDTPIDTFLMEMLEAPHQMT
Experiment: Co-transfection luciferase assay, EcRE × 6 reporter, RFXRop + HRXRop;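 note: CV-1 monkey cells transiently transfected with receptor expression vectors, reporter construct and β-galactosidase internal control, exposed to compound about 40 h, then luciferase chemiluminescence read by luminometer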

Fold Activation (0.1 μM LG268 + 0.01 μM AGN 34): 18.59 fold | Reporter Activity (0.1 μM LG268 + 0.01 μM AGN 34): 5.24 | Fold Activation (0.1 μM LG268 + 0.1 μM AGN 34): 1.55 fold | Reporter Activity (0.1 μM LG268 + 0.1 μM AGN 34): 0.44 | Fold Activation (0.1 μM LG268 + 1 μM AGN 34): 0.88 fold | Reporter Activity (0.1 μM LG268 + 1 μM AGN 34): 0.25 | Fold Activation (0.1 μM LG268 + 3 μM AGN 34): 0.92 fold | Reporter Activity (0.1 μM LG268 + 3 μM AGN 34): 0.26 | Fold Activation (0.1 μM LG268 + 10 μM AGN 34): 0.90 fold | Reporter Activity (0.1 μM LG268 + 10 μM AGN 34): 0.25 | Fold Activation (10 μM AGN 34 alone): 0.84 fold and 1.02 fold | Reporter Activity (10 μM AGN 34 alone): 0.27 and 0.29 | Fold Activation (50 μM CDCA + 0.01 μM AGN 34): 9.03 fold | Reporter Activity (50 μM CDCA + 0.01 μM AGN 34): 2.92 | Fold Activation (50 μM CDCA + 0.1 μM AGN 34): 6.32 fold | Reporter Activity (50 μM CDCA + 0.1 μM AGN 34): 2.05 | Fold Activation (50 μM CDCA + 1 μM AGN 34): 3.94 fold and 4.99 fold | Reporter Activity (50 μM CDCA + 1 μM AGN 34): 1.28 | Fold Activation (50 μM CDCA + 3 μM AGN 34): 3.04 fold | Reporter Activity (50 μM CDCA + 3 μM AGN 34): 0.98 | Fold Activation (50 μM CDCA + 10 μM AGN 34): 3.94 fold | Reporter Activity (50 μM CDCA + 10 μM AGN 34): 1.28
Compound: CCCCCCOc1c(\C(C)=C/C=C/C(C)=C/C(=O)O)cc(C(C)C)cc1C(C)C [AGN 34, (2E, 4E, 6Z)-7-(2-Hexyloxy-3,5-diisopropylphenyl)-3-methylocta-2,4,6-trienoic Acid]
